Test results published in patent US20100286145A1, “ISOPHTHALAMIDE DERIVATIVES INHIBITING BETA-SECRETASE ACTIVITY” (CoMentis, Inc., priority 2007, published 2010).
Read-outs that look alike come from different tables or passages of the source.

How the values were obtained:
cathepsin D = cathepsin D (Homo sapiens, UniProt P07339); experiment: Inhibition of cathepsin D activity (substrate peptide ELDLAVEFWHDR, MALDI-TOF); type: biochemical
memapsin 1 = target: T1, memapsin 1 (Homo sapiens, UniProt Q9Y5Z0); experiment: Inhibition of memapsin 1 beta-secretase activity (substrate peptide ELDLAVEFWHDR, MALDI-TOF); type: biochemical
T1 sequence (Q9Y5Z0 63-518): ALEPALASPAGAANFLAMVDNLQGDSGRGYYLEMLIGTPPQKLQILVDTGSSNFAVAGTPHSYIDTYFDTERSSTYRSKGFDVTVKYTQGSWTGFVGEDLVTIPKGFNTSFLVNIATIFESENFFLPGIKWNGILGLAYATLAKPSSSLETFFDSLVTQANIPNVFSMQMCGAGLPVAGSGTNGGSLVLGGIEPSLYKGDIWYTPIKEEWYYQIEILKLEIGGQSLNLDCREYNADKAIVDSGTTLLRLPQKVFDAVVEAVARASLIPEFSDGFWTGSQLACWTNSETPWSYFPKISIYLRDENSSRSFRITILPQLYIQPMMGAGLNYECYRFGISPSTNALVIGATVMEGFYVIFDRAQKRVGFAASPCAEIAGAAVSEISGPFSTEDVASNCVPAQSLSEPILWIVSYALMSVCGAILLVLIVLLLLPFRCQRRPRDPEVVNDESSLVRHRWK

[1] = test system: Aβ production in Chinese hamster ovary cells that over-express human APP695 with the London and Swedish mutations; experiment: Cellular Aβ IC50 determination (Aβ40 sandwich ELISA); type: cell-based; settings: Cricetulus griseus
In short: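 Aβ40 in media quantified by sandwich ELISA, normalized to control incubations and fitted with a 4-parameter IC50 model. Compounds dosed to a final concentration near 4 μM (0.4% DMSO) on CHO cells expressing human APP695 (London and Swedish mutants) seeded at 10% confluency.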

memapsin 2 = memapsin 2 (Homo sapiens, UniProt P56817); experiment: Inhibition of memapsin 2 beta-secretase activity (fluorogenic substrate FS-2); type: biochemical; settings: memapsin 2, pH 4, 37° C.
Chain of memapsin 2 (P56817 46-501): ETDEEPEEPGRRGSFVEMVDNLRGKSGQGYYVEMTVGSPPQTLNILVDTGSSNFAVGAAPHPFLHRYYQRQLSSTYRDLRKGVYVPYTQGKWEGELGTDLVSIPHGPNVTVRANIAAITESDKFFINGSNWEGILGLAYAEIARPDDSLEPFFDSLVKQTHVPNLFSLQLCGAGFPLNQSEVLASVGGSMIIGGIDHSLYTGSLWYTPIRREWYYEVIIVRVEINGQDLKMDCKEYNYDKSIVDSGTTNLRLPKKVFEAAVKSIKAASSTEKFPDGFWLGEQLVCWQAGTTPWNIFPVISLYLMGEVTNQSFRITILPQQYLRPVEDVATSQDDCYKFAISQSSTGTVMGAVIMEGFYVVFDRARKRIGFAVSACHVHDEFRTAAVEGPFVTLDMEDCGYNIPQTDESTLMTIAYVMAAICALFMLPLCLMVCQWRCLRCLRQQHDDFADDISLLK
In short: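 Kinetic fluorogenic assay: hydrolysis of the MCA/DNP-labelled APP Swedish-variant peptide FS-2 monitored as fluorescence rise at 37° C, pH 4, after 20 min enzyme–compound preincubation. Relative rates fitted with a tight-binding inhibitor model.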

[2] = cellular Aβ production, read-out: IC50
[3] = 20 minutes pre-incubation, read-out: M2Ki
[4] = fluorogenic substrate FS-2, read-out: M2Ki

Chain of cathepsin D (P07339 65-412, species assumed): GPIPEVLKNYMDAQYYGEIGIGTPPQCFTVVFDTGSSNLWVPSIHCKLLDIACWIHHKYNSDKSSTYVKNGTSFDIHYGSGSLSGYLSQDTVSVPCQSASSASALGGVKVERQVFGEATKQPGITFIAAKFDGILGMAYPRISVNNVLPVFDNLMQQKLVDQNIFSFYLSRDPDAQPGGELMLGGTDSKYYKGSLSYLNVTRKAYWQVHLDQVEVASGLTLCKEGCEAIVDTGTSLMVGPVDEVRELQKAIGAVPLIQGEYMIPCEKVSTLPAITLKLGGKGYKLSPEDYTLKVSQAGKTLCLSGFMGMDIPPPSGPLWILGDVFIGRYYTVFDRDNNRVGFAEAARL

Row | SMILES | Ki (cathepsin D; read-out: CathD Ki) [nM] | Ki (memapsin 1; read-out: M1 Ki) [nM] | IC50 ([1]; CHO cells, 24 h incubation, Aβ40, read-out: IC50 (cellular Aβ production)) [nM] | Ki (memapsin 2; read-out: M2 Ki) [nM] | Ki (cathepsin D; read-out: CDKi) [nM] | Ki (memapsin 1; read-out: M1Ki) [nM] | IC50 [1, 2] [nM] | Ki (memapsin 2; [3]) [nM] | Ki (memapsin 2; [4]) [nM]
1 | Cc1cc(C(=O)N[C@@H](Cc2ccccc2)[C@H](O)CNCc2cncc(C(C)C)c2)cc(C(=O)N(C)Cc2nc(C)cs2)c1 [N1-((2S,3R)-3-hydroxy-4-((5-isopropylpyridin-3-yl)methylamino)-1-phenylbutan-2-yl)-N3,5-dimethyl-N3-((4-methylthiazol-2-yl)methyl)isophthalamide] | 32.3 | 264 | 6 | 16.8 |  |  |  |  | 
2 | COc1cccc(CNC[C@@H](O)[C@H](Cc2ccccc2)NC(=O)c2cc(C(=O)N(C)Cc3nc(C)cs3)cc(C3=NCCO3)c2)c1 [Compound 46, 5-(4,5-dihydrooxazol-2-yl)-N1-((2S,3R)-3-hydroxy-4-(3-methoxybenzylamino)-1-phenylbutan-2-yl)-N3-methyl-N3-((4-methylthiazol-2-yl)methyl)isophthalamide] |  |  |  |  | 301 to 500 | > 501 | < 1000 | < 300 | 
3 | Cc1csc(CN(C(=O)c2cccc(C(=O)N[C@@H](Cc3ccccc3)[C@H](O)CNCc3cccc(C(F)(F)F)c3)c2)C2CC2)n1 [Compound 29, N1-cyclopropyl-N3-((2S,3R)-3-hydroxy-1-phenyl-4-(3-(trifluoromethyl)benzylamino)butan-2-yl)-N1-((4-methylthiazol-2-yl)methyl)isophthalamide] |  |  |  |  | < 300 | 301 to 500 | < 1000 | < 300 | 
4 | COc1cccc(CNC[C@@H](O)[C@H](Cc2ccccc2)NC(=O)c2cc(C(N)=O)cc(C(=O)N[C@H](C)c3ccccc3)c2)c1 [Compound 91, N1-((2S,3R)-3-hydroxy-4-(3-methoxybenzylamino)-1-phenylbutan-2-yl)-N3-((R)-1-phenylethyl)benzene-1,3,5-tricarboxamide] |  |  |  |  | > 501 | < 300 |  | > 501 | 
5 | Cc1csc([C@@H](C)N(C)C(=O)c2cccc(C(=O)N[C@@H](Cc3ccccc3)[C@H](O)CNCc3cncc(C(C)C)c3)c2)n1 [Compound 82, N1-((2S,3R)-3-hydroxy-4-((5-isopropylpyridin-3-yl)methylamino)-1-phenylbutan-2-yl)-N3-methyl-N3-((R)-1-(4-methylthiazol-2-yl)ethyl)isophthalamide] |  |  |  |  | 301 to 500 | 301 to 500 | < 1000 | < 300 | 
6 | C=Cc1cc(C(=O)N[C@@H](Cc2ccccc2)[C@H](O)CNCc2cccc(OC)c2)cc(C(=O)N(C)Cc2nc(C)cs2)c1 [Compound 21, N1-((2S,3R)-3-hydroxy-4-(3-methoxybenzylamino)-1-phenylbutan-2-yl)-N3-methyl-N3-((4-methylthiazol-2-yl)methyl)-5-vinylisophthalamide] |  |  |  |  | < 300 | > 501 | < 1000 | < 300 | 
7 | Cc1csc(CN(C)C(=O)c2cc(C(=O)N[C@@H](Cc3ccccc3)[C@H](O)CNCc3cncc(C(C)C)c3)cc(-c3cnco3)c2)n1 [Compound 218, N1-((2S,3R)-3-hydroxy-4-((5-isopropylpyridin-3-yl)methylamino)-1-phenylbutan-2-yl)-N3-methyl-N3-((4-methylthiazol-2-yl)methyl)-5-(oxazol-5-yl)isophthalamide] |  |  |  |  |  | < 300 | < 1000 |  | < 300
8 | Cc1cc(C(=O)N[C@@H](Cc2ccccc2)[C@H](O)CNCc2cncc(C(C)C)c2)cc(C(=O)N(Cc2nc(C)cs2)C2CC2)c1 [Compound 41, N1-cyclopropyl-N3-((2S,3R)-3-hydroxy-4-((5-isopropylpyridin-3-yl)methylamino)-1-phenylbutan-2-yl)-5-methyl-N1-((4-methylthiazol-2-yl)methyl)isophthalamide] |  |  |  |  | < 300 | < 300 | < 1000 | < 300 | 
9 | COc1cccc(CNC[C@@H](O)[C@H](Cc2ccccc2)NC(=O)c2cc(OC)cc(C(=O)N(C)Cc3nc(C)cs3)c2)c1 [Compound 3, N1-((2S,3R)-3-hydroxy-4-(3-methoxybenzylamino)-1-phenylbutan-2-yl)-5-methoxy-N3-methyl-N3-((4-methylthiazol-2-yl)methyl)isophthalamide] |  |  |  |  | < 300 | 301 to 500 | < 1000 | < 300 | 
10 | Cc1csc(CN(C)C(=O)c2cccc(C(=O)N[C@@H](Cc3ccccc3)[C@H](O)CNCc3ccnc(C(C)C)c3)c2)n1 [Compound 33, N1-((2S,3R)-3-hydroxy-4-((2-isopropylpyridin-4-yl)methylamino)-1-phenylbutan-2-yl)-N3-methyl-N3-((4-methylthiazol-2-yl)methyl)isophthalamide] |  |  |  |  | < 300 | 301 to 500 | < 1000 | < 300 | 
11 | COc1cc(C(=O)N[C@@H](Cc2ccccc2)[C@H](O)CNCc2cncc(C(C)C)c2)cc(C(=O)N(C)Cc2nc(C)cs2)c1 [Compound 40, N1-((2S,3R)-3-hydroxy-4-((5-isopropylpyridin-3-yl)methylamino)-1-phenylbutan-2-yl)-5-methoxy-N3-methyl-N3-((4-methylthiazol-2-yl)methyl)isophthalamide] |  |  |  |  | < 300 | < 300 | < 1000 | < 300 | 
12 | Cc1csc(CN(C)C(=O)c2cc(C(=O)N[C@@H](Cc3ccccc3)[C@H](O)CNCc3cncc(C(C)(C)F)c3)cc(N(C)C)c2)n1 [Compound 220, 5-(dimethylamino)-N1-((2S,3R)-4-((5-(2-fluoropropan-2-yl)pyridin-3-yl)methylamino)-3-hydroxy-1-phenylbutan-2-yl)-N3-methyl-N3-((4-methylthiazol-2-yl)methyl)isophthalamide] |  |  |  |  |  | < 300 | < 1000 |  | < 300
13 | Cc1csc(CN(C)C(=O)c2cc(C(=O)N[C@@H](Cc3ccccc3)[C@H](O)CNCc3cncc(C(C)C)c3)cc(-c3ncco3)c2)n1 [Compound 170, N1-((2S,3R)-3-hydroxy-4-((5-isopropylpyridin-3-yl)methylamino)-1-phenylbutan-2-yl)-N3-methyl-N3-((4-methylthiazol-2-yl)methyl)-5-(oxazol-2-yl)isophthalamide] |  |  |  |  |  | < 300 | < 1000 | < 300 | 
14 | Cc1csc(CN(C)C(=O)c2cccc(C(=O)N[C@@H](Cc3cc(F)cc(F)c3)[C@H](O)CNCc3cncc(C(C)C)c3)c2)n1 [Compound 208, N1-((2S,3R)-1-(3,5-difluorophenyl)-3-hydroxy-4-((5-isopropylpyridin-3-yl)methylamino)butan-2-yl)-N3-methyl-N3-((4-methylthiazol-2-yl)methyl)isophthalamide] |  |  |  |  |  | < 300 | < 1000 | < 300 | 
15 | CNc1cccc(CNC[C@@H](O)[C@H](Cc2ccccc2)NC(=O)c2cccc(C(=O)N(C)Cc3nc(C)cs3)c2)c1 [Compound 167, N1-((2S,3R)-3-hydroxy-4-(3-(methylamino)benzylamino)-1-phenylbutan-2-yl)-N3-methyl-N3-((4-methylthiazol-2-yl)methyl)isophthalamide] |  |  |  |  |  |  | < 1000 | < 300 | 
16 | CC(=O)Oc1cc(CNC[C@@H](O)[C@H](Cc2ccccc2)NC(=O)c2cccc(C(=O)N(C)Cc3nc(C)cs3)c2)cc(C(C)C)c1 [Compound 243, 3-(((2R,3S)-2-hydroxy-3-(3-(methyl((4-methylthiazol-2-yl)methyl)carbamoyl)benzamido)-4-phenylbutylamino)methyl)-5-isopropylphenyl acetate] |  |  |  |  |  |  | < 1000 |  | < 300
17 | COC(=O)c1cccc(CNC[C@@H](O)[C@H](Cc2ccccc2)NC(=O)c2cccc(C(=O)N(C)Cc3nc(C)cs3)c2)c1 [Compound 141, methyl 3-(((2R,3S)-2-hydroxy-3-(3-(methyl((4-methylthiazol-2-yl)methyl)carbamoyl)benzamido)-4-phenylbutylamino)methyl)benzoate] |  |  |  |  |  |  | < 1000 | 301 to 500 | 
18 | Cc1csc(CN(C)C(=O)c2cc(C(=O)N[C@@H](Cc3ccccc3)[C@H](O)CNCc3cncc(C(C)C)c3)cc(C(C)O)c2)n1 (stereo partly drawn) [Compound 223, N1-((2S,3R)-3-hydroxy-4-((5-isopropylpyridin-3-yl)methylamino)-1-phenylbutan-2-yl)-5-(1-hydroxyethyl)-N3-methyl-N3-((4-methylthiazol-2-yl)methyl)isophthalamide] |  |  |  |  |  |  | < 1000 |  | < 300
19 | Cc1csc(CN(C)C(=O)c2cccc(C(=O)N[C@@H](Cc3ccccc3)[C@H](O)CNCc3cc(CS(C)(=O)=O)cc(C(C)C)c3)c2)n1 [Compound 228, N1-((2S,3R)-3-hydroxy-4-(3-isopropyl-5-(methylsulfonylmethyl)benzylamino)-1-phenylbutan-2-yl)-N3-methyl-N3-((4-methylthiazol-2-yl)methyl)isophthalamide] |  |  |  |  |  | 301 to 500 | < 1000 |  | < 300
